We go through six compounds from PubChem BioAssay (NCI).

Common to all, as to assay: NCI anticancer screen, dose series, 48 h
Test [1] concerns NCI/ADR-RES ovarian.
For test [2], the system named is OVCAR-8 ovarian.
Test [3] deals with A498 renal.
For test [4], the system named is SK-OV-3 ovarian.
The test system of test [5] is HS 578T breast.
The subject of test [6] is NCI-H522 lung.
Test [7] has as its system HT29 colon.
Test [8] concerns EKVX NSCLC.
The subject of test [9] is OVCAR-3 ovarian.
Test [10] deals with MALME-3M melanoma.
The subject of test [11] is PC-3 prostate.
The test system of test [12] is K-562 leukemia.

“And” between values parts separate entries of the source, which are not always exact repeats. Equal entries are not always repeated.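 Values below derive from 48-hour exposures of cells grown in 96-well plates, with endpoints linearly interpolated between the two concentrations bracketing the appropriate inhibition level. GI50 marks 50% less growth. TGI: total growth inhibition.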

Take `Cc1ccc(NC(=S)N=Nc2c(O)[nH]c3ccccc23)cc1`: the TGI in test [1], in test [2], in test [3], in [4], in test [5] and in [6] was over 100 µM each time. Besides, the TGI in test [7], in test [8], in test [9], in [10], in test [11] and in [12] was over 100 µM throughout.
Regarding `O=P(O)(O)CC1OC(CO)C(O)C1O` (stereo unspecified), the TGI in [1], in test [2], in test [3], in test [4], in [5] and in test [6] was over 100 µM in each case. For the same compound, the TGI in test [7], in [8], in [9], in test [10], in [11] and in test [12] was over 100 µM throughout.
Consider `C=C(C1=CC(=O)C(C)(C)O1)[C@@H]1CC=C([C@@H]2CC[C@H]3[C@@]2(C)CC[C@H]2C(C)(C)C(=O)[C@H](OC(=O)CC(C)(O)CC(=O)O)C[C@]32C)[C@H](O)O1` (stereo partly specified), for which the TGI worked out at 51.3 µM in test [1]; 29.1 µM in test [2]; 26 µM in [3]; 46.9 µM in test [4]; 66.7 µM in test [5]; 25.4 µM in test [6]. Further, the TGI in test [7] is 34.4 µM; in [8], 29.8 µM; in test [9] it was 23.6 µM; in [10], 28 µM; in [11] it was 30.2 µM; in [12] it was over 75 µM.
`COc1ccc(-c2nc(SC)n(C3OC(COC(C)=O)C(OC(C)=O)C(OC(C)=O)C3OC(C)=O)c(=O)c2C#N)cc1` (stereo unspecified): the TGI is over 100 µM in [1]; over 100 µM in [2]; 44.5 µM and > 100 µM in test [3]; 98.4 µM and > 100 µM in test [4]; over 100 µM in test [5]; 72.7 µM and > 100 µM in test [6]. Also, the TGI in [7], in [8], in test [9], in [10], in test [11] and in [12] was over 100 µM in each case. In addition, the GI50 is 8.43 µM and 44.1 µM in [3]; 34.5 µM and > 100 µM in [4]; 18.7 µM and > 100 µM in [6]; 38.2 µM and > 100 µM in test [9].
Turning to `CCOC(=O)/C=C(/C(=O)OCC)n1ccc(=O)n(CC(=O)OCC)c1=O`, the TGI in test [1] came to 8.14 µM; in [2] it was 6.41 µM; in [3], 28 µM; in [4], 27.6 µM; in test [5], 26.4 µM; in test [6], 0.624 µM. The TGI in [7] stood at 3.24 µM; in test [8], 4.87 µM; in [9], 2.44 µM; in test [10] it was 1.71 µM; in test [11] it was 3.22 µM; in [12] it was 1.62 µM.
With `FC(F)(F)C1(c2ccccc2)SCc2nc3ccccc3n21` (stereo unspecified), the TGI in test [1], in test [2], in test [3], in test [4], in [5] and in [6] was over 100 µM each time. For the same compound, the TGI in [7], in test [8], in test [9], in [10], in test [11] and in test [12] was over 100 µM throughout.
